Reference: ChEMBL document CHEMBL1221222, “Analysis of the eukaryotic prenylome by isoprenoid affinity tagging” (Nat Chem Biol, 2009)
Activity calls are given as the source filed them. No cut-off for these calls is given here.

What was measured:
COS-7 [1] = test: Inhibition of RabGGTase in african green monkey COS7 cells assessed as Rab prenylation up to 50 uM by Western blot analysis; type: cell-based
COS-7 [2] = test: Inhibition of FTase in african green monkey COS7 cells assessed as protein prenylation at 15 uM by Western blot analysis; type: cell-based
COS-7 [3] = test: Inhibition of GGTase-1 in african green monkey COS7 cells assessed as protein prenylation at >5 uM by Western blot analysis; type: cell-based
COS-7 [4] = test: Inhibition of RabGGTase in african green monkey COS7 cells assessed as Rab prenylation by Western blot analysis; type: cell-based
COS-7 [5] = test: Inhibition of RabGGTase in african green monkey COS7 cells assessed as unprenylated Rab34 level by MudPIT analysis; type: cell-based
COS-7 [6] = test: Inhibition of isoprenoid biosynthesis in african green monkey COS7 assessed as unprenylated Rab protein level by Western blot analysis; type: functional, cell-based; settings: Chlorocebus aethiops
COS-7 [7] = test: Inhibition of RabGGTase in african green monkey COS7 cells assessed as unprenylated Rab06B level by MudPIT analysis; type: cell-based
COS-7 [8] = test: Inhibition of RabGGTase in african green monkey COS7 cells assessed as unprenylated Rab22A level by MudPIT analysis; type: cell-based
COS-7 [9] = test: Inhibition of RabGGTase in african green monkey COS7 cells assessed as unprenylated Rab03B level by MudPIT analysis; type: cell-based
COS-7 [10] = test: Inhibition of RabGGTase in african green monkey COS7 cells assessed as unprenylated Rab06C level by MudPIT analysis; type: cell-based
COS-7 [11] = test: Inhibition of RabGGTase in african green monkey COS7 cells assessed as unprenylated Rab21 level by MudPIT analysis; type: cell-based
COS-7 [12] = test: Inhibition of RabGGTase in african green monkey COS7 cells assessed as unprenylated Rab30 level by MudPIT analysis; type: cell-based
COS-7 [13] = test: Inhibition of RabGGTase in african green monkey COS7 cells assessed as unprenylated Rab04A level by MudPIT analysis; type: cell-based
COS-7 [14] = test: Inhibition of RabGGTase in african green monkey COS7 cells assessed as unprenylated Rab43 level by MudPIT analysis; type: cell-based
COS-7 [15] = test: Inhibition of RabGGTase in african green monkey COS7 cells assessed as unprenylated Rab27B level by MudPIT analysis; type: cell-based
COS-7 [16] = test: Inhibition of RabGGTase in african green monkey COS7 cells assessed as unprenylated Rab14 level by MudPIT analysis; type: cell-based
COS-7 [17] = test: Inhibition of RabGGTase in african green monkey COS7 cells assessed as unprenylated Rab03A level by MudPIT analysis; type: cell-based
COS-7 [18] = test: Inhibition of RabGGTase in african green monkey COS7 cells assessed as unprenylated Rab03D level by MudPIT analysis; type: cell-based
COS-7 [19] = test: Inhibition of RabGGTase in african green monkey COS7 cells assessed as unprenylated Rab15 level by MudPIT analysis; type: cell-based
COS-7 [20] = test: Inhibition of RabGGTase in african green monkey COS7 cells assessed as unprenylated Rab05C level by MudPIT analysis; type: cell-based
COS-7 [21] = test: Inhibition of RabGGTase in african green monkey COS7 cells assessed as unprenylated Rab33B level by MudPIT analysis; type: cell-based
COS-7 [22] = test: Inhibition of RabGGTase in african green monkey COS7 cells assessed as unprenylated Rab39A level by MudPIT analysis; type: cell-based
COS-7 [23] = test: Inhibition of RabGGTase in african green monkey COS7 cells assessed as unprenylated Rab37 level by MudPIT analysis; type: cell-based
COS-7 [24] = test: Inhibition of RabGGTase in african green monkey COS7 cells assessed as unprenylated Rab31 level by MudPIT analysis; type: cell-based
COS-7 [25] = test: Inhibition of RabGGTase in african green monkey COS7 cells assessed as unprenylated Rab11B level by MudPIT analysis; type: cell-based
COS-7 [26] = test: Inhibition of RabGGTase in african green monkey COS7 cells assessed as unprenylated Rab09B level by MudPIT analysis; type: cell-based
COS-7 [27] = test: Inhibition of RabGGTase in african green monkey COS7 cells assessed as unprenylated Rab03C level by MudPIT analysis; type: cell-based
COS-7 [28] = test: Inhibition of RabGGTase in african green monkey COS7 cells assessed as unprenylated Rab41 level by MudPIT analysis; type: cell-based
COS-7 [29] = test: Inhibition of RabGGTase in african green monkey COS7 cells assessed as unprenylated Rab02B level by MudPIT analysis; type: cell-based
COS-7 [30] = test: Inhibition of RabGGTase in african green monkey COS7 cells assessed as unprenylated Rab05A level by MudPIT analysis; type: cell-based
COS-7 [31] = test: Inhibition of RabGGTase in african green monkey COS7 cells assessed as unprenylated Rab27A level by MudPIT analysis; type: cell-based
COS-7 [32] = test: Inhibition of RabGGTase in african green monkey COS7 cells assessed as unprenylated Rab01A level by MudPIT analysis; type: cell-based
COS-7 [33] = test: Inhibition of RabGGTase in african green monkey COS7 cells assessed as unprenylated Rab02A level by MudPIT analysis; type: cell-based
COS-7 [34] = test: Inhibition of RabGGTase in african green monkey COS7 cells assessed as unprenylated Rab35 level by MudPIT analysis; type: cell-based
COS-7 [35] = test: Inhibition of RabGGTase in african green monkey COS7 cells assessed as unprenylated Rab04B level by MudPIT analysis; type: cell-based
COS-7 [36] = test: Inhibition of RabGGTase in african green monkey COS7 cells assessed as unprenylated Rab10 level by MudPIT analysis; type: cell-based
COS-7 [37] = test: Inhibition of RabGGTase in african green monkey COS7 cells assessed as unprenylated Rab09A level by MudPIT analysis; type: cell-based
COS-7 [38] = test: Inhibition of RabGGTase in african green monkey COS7 cells assessed as unprenylated Rab06A level by MudPIT analysis; type: cell-based
COS-7 [39] = test: Inhibition of RabGGTase in african green monkey COS7 cells assessed as unprenylated Rab08B level by MudPIT analysis; type: cell-based
COS-7 [40] = test: Inhibition of RabGGTase in african green monkey COS7 cells assessed as unprenylated Rab01B level by MudPIT analysis; type: cell-based
COS-7 [41] = test: Inhibition of RabGGTase in african green monkey COS7 cells assessed as unprenylated Rab11A level by MudPIT analysis; type: cell-based
COS-7 [42] = test: Inhibition of RabGGTase in african green monkey COS7 cells assessed as unprenylated Rab39B level by MudPIT analysis; type: cell-based
COS-7 [43] = test: Inhibition of RabGGTase in african green monkey COS7 cells assessed as unprenylated Rab13 level by MudPIT analysis; type: cell-based
COS-7 [44] = test: Inhibition of RabGGTase in african green monkey COS7 cells assessed as unprenylated Rab07a level by MudPIT analysis; type: cell-based
COS-7 [45] = test: Inhibition of RabGGTase in african green monkey COS7 cells assessed as unprenylated Rab08A level by MudPIT analysis; type: cell-based
COS-7 [46] = test: Inhibition of RabGGTase in african green monkey COS7 cells assessed as unprenylated Rab05B level by MudPIT analysis; type: cell-based
COS-7 [47] = test: Inhibition of RabGGTase in african green monkey COS7 cells assessed as unprenylated Rab18 level by MudPIT analysis; type: cell-based
[48] = tested on: Geranylgeranyl transferase type-1 subunit beta (Homo sapiens), P53609 [F52Y,F53Y,Y126T]; test: Binding affinity to GGTase-1 F52Y/F53Y/Y126T mutant assessed as prenylation of dansyl-labeled GCVLL by fluorescence based assay
[49] = tested on: Geranylgeranyl transferase type-1 subunit beta (Homo sapiens), P53609 [F52Y,F53Y,Y126T]; test: Binding affinity to GGTase-1 F52Y/F53Y/Y126T mutant assessed as prenylation of dansyl-labeled GCVLS by fluorescence based assay
[50] = tested on: Protein farnesyltransferase subunit beta (Homo sapiens), P49356 [W102T,Y154T,Y205T]; test: Binding affinity to FTase W102T/Y154T/Y205T mutant assessed as prenylation of dansyl-labeled GCVLL by fluorescence based assay
[51] = tested on: Protein farnesyltransferase subunit beta (Homo sapiens), P49356 [W102T,Y154T,Y205T]; test: Binding affinity at FTase W102T/Y154T/Y205T mutant assessed as prenylation of dansyl-labeled GCVLS by fluorescence based assay
COS-7 [52] = test: Inhibition of FTase in african green monkey COS7 cells assessed as protein prenylation at 100 uM by Western blot analysis; type: cell-based

Geranylgeranyl transferase type-1 subunit beta (Homo sapiens), P53609 [F52Y,F53Y,Y126T], sequence (P53609 whole entry F52Y/F53Y/Y126T): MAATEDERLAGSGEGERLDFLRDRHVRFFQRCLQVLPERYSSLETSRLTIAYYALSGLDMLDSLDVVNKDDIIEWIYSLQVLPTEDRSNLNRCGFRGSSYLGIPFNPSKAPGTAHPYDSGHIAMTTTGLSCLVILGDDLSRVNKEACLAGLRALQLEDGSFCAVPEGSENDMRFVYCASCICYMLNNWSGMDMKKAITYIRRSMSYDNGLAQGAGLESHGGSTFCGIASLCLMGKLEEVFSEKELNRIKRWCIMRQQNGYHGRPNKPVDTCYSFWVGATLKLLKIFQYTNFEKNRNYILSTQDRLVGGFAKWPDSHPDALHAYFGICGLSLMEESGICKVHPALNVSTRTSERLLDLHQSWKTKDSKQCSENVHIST
Protein farnesyltransferase subunit beta (Homo sapiens), P49356 [W102T,Y154T,Y205T], sequence (P49356 whole entry W102T/Y154T/Y205T): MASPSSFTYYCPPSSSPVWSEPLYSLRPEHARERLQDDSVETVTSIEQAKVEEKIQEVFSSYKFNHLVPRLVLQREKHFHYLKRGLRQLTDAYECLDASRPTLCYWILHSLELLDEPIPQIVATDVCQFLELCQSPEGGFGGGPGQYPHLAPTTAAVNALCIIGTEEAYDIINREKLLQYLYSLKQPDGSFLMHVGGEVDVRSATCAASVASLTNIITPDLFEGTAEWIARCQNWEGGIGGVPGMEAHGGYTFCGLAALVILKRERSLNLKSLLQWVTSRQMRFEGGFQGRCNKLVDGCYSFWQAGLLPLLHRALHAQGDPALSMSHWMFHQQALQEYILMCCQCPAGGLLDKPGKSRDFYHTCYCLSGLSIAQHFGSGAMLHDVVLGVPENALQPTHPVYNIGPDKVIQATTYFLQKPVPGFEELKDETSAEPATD

In the case of `CCC[C@@H]1[C@@H](Sc2ccc(OC)cc2)[C@@H](C(=O)O)[C@H](c2ccc(Br)cc2)N1S(=O)(=O)c1ccc(C)cc1`, the inhibition (COS-7 [1]) is reported as “inactive”.
`COC(=O)[C@H](CC(C)C)NC(=O)c1ccc(NC[C@@H](N)CS)cc1-c1cccc2ccccc12` was tested, and the inhibition (COS-7 [2]) was “Active”, the inhibition (COS-7 [3]) was “Active” and the inhibition (COS-7 [4]) was “inactive”.
For `CC[C@H](C)C(=O)O[C@H]1CCC=C2C=C[C@H](C)[C@H](CC[C@@H]3C[C@@H](O)CC(=O)O3)[C@H]21`, the Activity (COS-7 [5]) was 0.1 pmol, the inhibition (COS-7 [6]) was “Active” and the Activity (COS-7 [7]) was 0.6 pmol. It also gave an Activity (COS-7 [8]) of 0.8 pmol, an Activity (COS-7 [9]) of 0.4 pmol and an Activity (COS-7 [10]) of 0.2 pmol. For the same compound, the Activity (COS-7 [11]) was 0.6 pmol, the Activity (COS-7 [12]) was 0.2 pmol and the Activity (COS-7 [13]) was 0.2 pmol. For the same compound, the Activity (COS-7 [14]) was 0.2 pmol, the Activity (COS-7 [15]) was 0.1 pmol and the Activity (COS-7 [16]) was 1.5 pmol. The Activity (COS-7 [17]) was 0.7 pmol, the Activity (COS-7 [18]) was 1.1 pmol and the Activity (COS-7 [19]) was 0.1 pmol. It also gave an Activity (COS-7 [20]) of 1.6 pmol, an Activity (COS-7 [21]) of 0.2 pmol and an Activity (COS-7 [22]) of 0.2 pmol. The Activity (COS-7 [23]) was 0.2 pmol, the Activity (COS-7 [24]) was 0.3 pmol and the Activity (COS-7 [25]) was 1.5 pmol. The Activity (COS-7 [26]) was 0.3 pmol, the Activity (COS-7 [27]) was 0.4 pmol and the Activity (COS-7 [28]) was 0.2 pmol. For the same compound, the Activity (COS-7 [29]) was 0.5 pmol, the Activity (COS-7 [30]) was 1.3 pmol and the Activity (COS-7 [31]) was 0.1 pmol. For the same compound, the Activity (COS-7 [32]) was 1.7 pmol, the Activity (COS-7 [33]) was 1.2 pmol and the Activity (COS-7 [34]) was 0.6 pmol. It also gave an Activity (COS-7 [35]) of 0.2 pmol, an Activity (COS-7 [36]) of 1 pmol and an Activity (COS-7 [37]) of 0.8 pmol. The Activity (COS-7 [38]) was 0.8 pmol, the Activity (COS-7 [39]) was 0.4 pmol and the Activity (COS-7 [40]) was 1.8 pmol. It also gave an Activity (COS-7 [41]) of 1.2 pmol, an Activity (COS-7 [42]) of 0.2 pmol and an Activity (COS-7 [43]) of 0.4 pmol. It also gave an Activity (COS-7 [44]) of 1.7 pmol, an Activity (COS-7 [45]) of 0.6 pmol and an Activity (COS-7 [46]) of 1.1 pmol. It also gave an Activity (COS-7 [47]) of 0.7 pmol.
With `CC(C)=CCC/C(C)=C/CC/C(C)=C/CC/C(C)=C/COP(=O)(O)OP(=O)(O)O` the Activity [48] was “inactive”, the Activity [49] was “inactive” and the Activity [50] was “inactive”. The Activity [51] was “inactive”.
For `CSCC[C@H](NC(=O)[C@H](Cc1ccccc1)NC[C@@H](NC[C@@H](N)CS)C(C)C)C(=O)O`, the inhibition (COS-7 [52]) was “inactive”.
With `CCCCCCS[C@H]1[C@@H](C(=O)O)[C@H](c2ccc(Br)cc2)N(S(=O)(=O)c2ccc(C)cc2)[C@@H]1CCCCCC` the inhibition (COS-7 [1]) was “inactive”.
With `CCCCCCS[C@H]1[C@@H](C(=O)O)[C@H](c2ccc(Br)cc2)N(S(=O)(=O)c2ccc(C)cc2)[C@@H]1CCC` the inhibition (COS-7 [1]) was “inactive”.
